Here are results for nine compounds from patent US6689806B1, “Indolinone compounds as kinase inhibitors” (Sugen, Inc., priority 1999, dated 2004).

Where two headings read alike, the source gives them in different places. Bounds are passed on as bounds.

The target of experiment [1] is T1, Her2 (Homo sapiens, UniProt P04626).
T1 construct: fused on or other part: P00533 (Epidermal growth factor receptor)
As to the kind of experiment: HER-2 ELISA: EGF receptor-HER2 chimeric receptor assay in whole cells (HER2 kinase). The format is cell-based. To be noted: NIH3T3 cells with EGFR/HER2 chimeric receptor, phosphotyrosine ELISA. As for the experimental part: Assay 1: EGF Receptor-HER2 Chimeric Receptor Assay In Whole Cells.
HER2 kinase activity in whole EGFR-NIH3T3 cells was measured as described below:
1. An NIH3T3 cell line overexpressing a chimeric receptor containing the EGFR extracellular domain and intracellular HER2 kinase domain can be used for this assay.
3. Resuspend cells in seeding medium (DMEM, 0.5% bovine serum), and count the cells using trypan blue. Viability above 90% is acceptable. Seed cells in DMEM medium (0.5% bovine serum) at a density of 10,000 cells per well, 100 μL per well, in a 96 well microtiter plate. Incubate seeded cells in 5% CO2 at 37° C. for about 40 hours.
1. Check seeded cells for contamination using an inverted microscope. Dilute drug stock (10 mg/mL in DMSO) 1:10 in DMEM medium, then transfer 5 μL to a TBST well for a final drug dilution of 1:200 and a final DMSO concentration of 1%. Control wells receive DMSO alone. Incubate in 5% CO2 at 37° C. for two hours.
2. Prepare EGF ligand: dilute stock EGF in DMEM so that upon transfer of 10 μL dilute EGF (1:12 dilution), 100 nM final concentration is attained.
4. After 120 minutes incubation with drug, add prepared […] ligand to cells, 10 μL per well, to a final concentration of 100 nM. Control wells receive DMEM alone. Incubate, shaking, at room temperature, for 5 minutes.
5. Remove drug, EGF, and DMEM. Wash cells twice with PBS. Transfer HNTG* to cells, 100 μL per well. Place on ice for 5 minutes. Meanwhile, remove blocking buffer from other ELISA plate and wash with TBST as described above.
6. With a pipette tip securely fitted to a micropipettor, scrape cells from plate and homogenize cell material by repeatedly aspirating and dispensing the HNTG* lysis buffer. Transfer lysate to a coated, blocked, and washed ELISA plate. Incubate shaking at room temperature for one hour.
7. Remove lysate and wash 4 times with TBST. Transfer freshly diluted anti-Ptyr antibody to ELISA plate at 100 μL per well. Incubate shaking at room temperature for 30 minutes in the presence of the anti-Ptyr antiserum (1:3000 dilution in TBST).
8. Remove the anti-Ptyr antibody and wash 4 times with TBST. Transfer the freshly diluted TAGO anti-rabbit IgG antibody to the ELISA plate at 100 μL per well. Incubate shaking at room temperature for 30 minutes (anti-rabbit IgG antibody: 1:3000 dilution in TBST).
9. Remove TAGO detection antibody and wash 4 times with TBST. Transfer freshly prepared ABTS/H2O2 solution to ELISA plate, 100 μL per well. Incubate shaking at room temperature for 20 minutes. (ABTS/H2O2 solution: 1.0 μL 30% H2O2 in 10 mL ABTS stock).
10. Stop reaction by adding 50 μL 5N H2SO4 (optional), and determine O.D. at 410 nm.
11. The maximal phosphotyrosine signal is determined by subtracting the value of the negative controls from the positive controls. The percent inhibition of phosphotyrosine content for extract-containing wells is then calculated, after subtraction of the negative controls.

In experiment [2] the test system is SKOV3. As to the kind of experiment: SKOV3 growth. The format is cell-based. Particulars: Homo sapiens, SK-OV-3, SKOV3 cells.
Experiment [3] relates to A431. As to the kind of experiment: A431 growth. The format is cell-based. To be noted: Homo sapiens, A-431, A431 cells.
The target in experiment [4] is PDGFR (Homo sapiens, UniProt P09619). As to the kind of experiment: Biochemical PDGFR assay (ELISA). To be noted: read-out: PDGFr biochem IC50. On the set-up: expressed in transfected cells; host or cells: NIH 3T3. The method, then: This assay measures the in vitro kinase activity of PDGFR using ELISA.
Sequence of PDGFR (P09619 33-1106): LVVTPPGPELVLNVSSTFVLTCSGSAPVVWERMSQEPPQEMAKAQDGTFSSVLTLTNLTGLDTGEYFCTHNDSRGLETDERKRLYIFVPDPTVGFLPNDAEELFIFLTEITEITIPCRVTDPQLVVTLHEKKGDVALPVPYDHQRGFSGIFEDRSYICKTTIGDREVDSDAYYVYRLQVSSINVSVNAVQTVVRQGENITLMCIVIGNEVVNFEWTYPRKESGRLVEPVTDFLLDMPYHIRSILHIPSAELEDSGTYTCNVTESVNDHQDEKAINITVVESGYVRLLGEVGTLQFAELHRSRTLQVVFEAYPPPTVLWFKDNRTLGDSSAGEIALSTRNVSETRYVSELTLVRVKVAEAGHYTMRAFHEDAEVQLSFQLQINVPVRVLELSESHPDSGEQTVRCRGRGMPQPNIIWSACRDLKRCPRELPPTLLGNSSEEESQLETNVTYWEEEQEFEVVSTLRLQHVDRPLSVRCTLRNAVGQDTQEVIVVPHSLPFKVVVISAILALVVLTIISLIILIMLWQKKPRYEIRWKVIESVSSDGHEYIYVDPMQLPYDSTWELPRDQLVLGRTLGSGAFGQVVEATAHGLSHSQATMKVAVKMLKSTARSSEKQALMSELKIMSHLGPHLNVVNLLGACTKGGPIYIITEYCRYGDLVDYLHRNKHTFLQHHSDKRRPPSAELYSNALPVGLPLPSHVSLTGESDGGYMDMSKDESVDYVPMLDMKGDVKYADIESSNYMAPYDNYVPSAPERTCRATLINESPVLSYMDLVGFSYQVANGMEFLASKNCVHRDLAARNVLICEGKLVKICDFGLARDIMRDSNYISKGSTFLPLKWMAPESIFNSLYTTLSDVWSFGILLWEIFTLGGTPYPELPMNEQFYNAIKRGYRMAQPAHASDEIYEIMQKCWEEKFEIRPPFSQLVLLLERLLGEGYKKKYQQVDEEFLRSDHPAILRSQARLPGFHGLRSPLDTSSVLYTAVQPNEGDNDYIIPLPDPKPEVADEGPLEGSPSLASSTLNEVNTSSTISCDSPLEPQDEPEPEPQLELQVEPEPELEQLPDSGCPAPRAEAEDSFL
6. PDGFR-β expressing NlH 3T3 cell lysate.
1. Coat Corning 96 well ELISA plates with 0.5 μg 28D4C10 in 100 μL PBS per well, store overnight at 4° C.
5. Dilute lysate in HNTG (10 μg lysate/100 μL HNTG)
(§1) 6. Add 100 μL of diluted lysate to each well. Shake at room temperature for 60 min.
8. Add 80 μL working kinase buffer mix to ELISA plate containing captured PDGFR.
9. Dilute test compound 1:10 in TBS in 96-well polypropylene plates (i.e., 10 μL compound+90 μL TBS).
10. Add 10 μL diluted test compound to ELISA plate.
11. Incubate for 30 minutes while shaking at room temperature.
12. Add 10 μL ATP directly to all wells except negative control well (final well volume should be approximately 100 μL with 20 μM ATP in each well.) Incubate 30 minutes while shaking.
13. After 30 minutes, stop reaction by adding 10 μL of 200 mM EDTA (pH 8.0) to each well.
(§2) 15. Add 100 μL anti-phosphotyrosine (1:3000 dilution in TBST) per well. Incubate 30-45 min. at room temperature, with shaking.
(§3) 17. Add 100 μL Biosource Goat anti-rabbit IgG peroxidase conjugate (1:2000 dilution in TBST) to each well. Incubate 30 min. at room temperature, with shaking.
(§4) 19. Add 100 μL of ABTS/H2O2 solution to each well.
22. Read assay on Dynatech MR7000 ELISA reader: test filter: 410 nM, reference filter: 630 nM.
For orientation: ELISA stands for enzyme-linked immunosorbent assay.

Experiment [5] concerns the target EGFR (Homo sapiens, UniProt P00533). Put plainly: Biochemical EGFR assay (ELISA). On the set-up: A431 cell lysate; endogenous in cells; host or cells: A431. To be noted: read-out: EGFr biochem IC50. The method, then:
This assay measures the in vitro kinase activity of EGFR using ELISA.
1. Coat Coming 96 well ELISA plates with 0.5 μg SUMOl in 100 μL PBS per well, store overnight at 4° C.
5. Dilute lysate in PBS (7 μg lysate/100 μL PBS).
as §1
8. Add 120 μL TBS to ELISA plate containing captured EGFR.
9. Dilute test compound 1:10 in TBS in 96-well polypropylene plates (ie. 10 μL compound+90 μL TBS).
10. Add 13.5 μL diluted test compound to ELISA plate.
13. After 5 minutes, stop reaction by adding 16.5 μL of 200 mM EDTA (pH 8.0) to each well, shaking continuously. After the EDTA has been added, shake for 1 mm.
as §2, §3, §4
22. Read assay on Dynatech MR7000 ELISA reader. Test Filter: 410 nM Reference Filter: 630 Nm.

Experiment [6] concerns the target T1, Her2. As to the kind of experiment: EGF-induced Her2-driven BrdU incorporation. The format is cell-based. Particulars: Table 7; 3T3 cells with EGF-R/Her2 chimeric receptor, EGF 2 nM; read-out: BrdU DNA syn. HER2 IC50. As for the experimental part: The cellular/biologic assays described herein measure the amount of DNA made in response to activation of a test kinase, which is a general measure of a proliferative response. The general procedure for this assay is as follows: a compound is introduced to cells expressing the test kinase, either naturally or recombinantly, for some period of time after which, if the test kinase is a receptor, a ligand known to activate the receptor is added. After incubation at least overnight, a DNA labeling reagent such as Bromodeoxy-uridine (BrdU) or 3H-thymidine is added. The amount of labeled DNA is detected with either an anti-BrdU antibody or by measuring radioactivity and is compared to control cells not contacted with a test compound.
EGF-Induced Her2-Driven BrdU Incorporation
(8) 3T3 cell line engineered to express a chimeric receptor having the extra-cellular domain of EGF-R and the intra-cellular domain of Her2.
(1) Cells are seeded at 8000 cells/well in DMEM, 10% CS, 2 mM Gln in a 96-well plate. Cells are incubated overnight at 37° C. in 5% CO2.
(2) After 24 hours, the cells are washed with PBS, and then are serum starved in serum free medium (0% CS DMEM with 0.1% BSA) for 24 hours.
(3) On day 3, ligand (EGF=2 nM, prepared in DMEM with 0.1% BSA) and test compounds are added to the cells simultaneously. The negative control wells receive serum free DMEM with 0.1% BSA only; the positive control cells receive the ligand (EGF) but no test compound. Test compounds are prepared in serum free DMEM with ligand in a 96 well plate, and serially diluted for 7 test concentrations.
(4) After 20 hours of ligand activation, diluted BrdU labeling reagent (1:100 in DMEM, 0.1% BSA) is added and the cells are incubated with BrdU (final concentration=[…]) for 1.5 hours.
(10) The absorbance of the samples are measured at 410 nm (in “dual wavelength” mode with a filter reading at 490 nm, as a reference wavelength) on a Dynatech ELISA plate reader.
In general terms: Incorporation of labelled thymidine or its analogues reports DNA synthesis.

The mark [7] stands for this setting: Table 5, in vitro kinase activity.
The mark [8] stands for this setting: Table 7, in vitro kinase activity.

Sequence of EGFR (P00533 25-1210): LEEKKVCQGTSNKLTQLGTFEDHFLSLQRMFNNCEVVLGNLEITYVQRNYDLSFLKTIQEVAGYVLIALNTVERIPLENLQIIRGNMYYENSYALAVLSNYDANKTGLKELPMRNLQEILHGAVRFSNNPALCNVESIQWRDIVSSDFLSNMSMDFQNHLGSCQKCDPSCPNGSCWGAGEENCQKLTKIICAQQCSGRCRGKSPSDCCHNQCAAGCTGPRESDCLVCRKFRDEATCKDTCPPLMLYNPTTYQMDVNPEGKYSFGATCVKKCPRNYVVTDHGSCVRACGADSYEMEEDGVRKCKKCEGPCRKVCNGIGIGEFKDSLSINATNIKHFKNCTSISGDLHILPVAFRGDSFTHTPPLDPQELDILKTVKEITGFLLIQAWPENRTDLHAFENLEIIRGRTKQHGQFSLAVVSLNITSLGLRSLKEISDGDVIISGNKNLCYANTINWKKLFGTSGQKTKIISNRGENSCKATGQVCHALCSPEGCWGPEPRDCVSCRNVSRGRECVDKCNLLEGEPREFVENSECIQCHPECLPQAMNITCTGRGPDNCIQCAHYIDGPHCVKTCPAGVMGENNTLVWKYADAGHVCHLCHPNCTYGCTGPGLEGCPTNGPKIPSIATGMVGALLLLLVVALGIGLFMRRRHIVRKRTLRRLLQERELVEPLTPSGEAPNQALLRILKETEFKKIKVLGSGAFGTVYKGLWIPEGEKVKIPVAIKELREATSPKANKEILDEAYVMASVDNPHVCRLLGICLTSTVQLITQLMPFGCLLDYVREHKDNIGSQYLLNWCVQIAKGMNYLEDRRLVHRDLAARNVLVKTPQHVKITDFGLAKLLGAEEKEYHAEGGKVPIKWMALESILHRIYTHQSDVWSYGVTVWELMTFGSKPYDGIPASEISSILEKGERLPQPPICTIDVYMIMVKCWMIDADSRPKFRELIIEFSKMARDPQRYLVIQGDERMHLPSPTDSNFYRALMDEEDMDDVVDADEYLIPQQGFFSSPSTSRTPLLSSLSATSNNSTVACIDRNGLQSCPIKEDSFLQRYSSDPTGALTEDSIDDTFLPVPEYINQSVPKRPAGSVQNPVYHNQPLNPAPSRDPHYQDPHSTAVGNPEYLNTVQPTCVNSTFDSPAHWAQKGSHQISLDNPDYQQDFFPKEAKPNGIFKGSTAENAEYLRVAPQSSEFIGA
T1 sequence (P04626 676-1255 limits assumed): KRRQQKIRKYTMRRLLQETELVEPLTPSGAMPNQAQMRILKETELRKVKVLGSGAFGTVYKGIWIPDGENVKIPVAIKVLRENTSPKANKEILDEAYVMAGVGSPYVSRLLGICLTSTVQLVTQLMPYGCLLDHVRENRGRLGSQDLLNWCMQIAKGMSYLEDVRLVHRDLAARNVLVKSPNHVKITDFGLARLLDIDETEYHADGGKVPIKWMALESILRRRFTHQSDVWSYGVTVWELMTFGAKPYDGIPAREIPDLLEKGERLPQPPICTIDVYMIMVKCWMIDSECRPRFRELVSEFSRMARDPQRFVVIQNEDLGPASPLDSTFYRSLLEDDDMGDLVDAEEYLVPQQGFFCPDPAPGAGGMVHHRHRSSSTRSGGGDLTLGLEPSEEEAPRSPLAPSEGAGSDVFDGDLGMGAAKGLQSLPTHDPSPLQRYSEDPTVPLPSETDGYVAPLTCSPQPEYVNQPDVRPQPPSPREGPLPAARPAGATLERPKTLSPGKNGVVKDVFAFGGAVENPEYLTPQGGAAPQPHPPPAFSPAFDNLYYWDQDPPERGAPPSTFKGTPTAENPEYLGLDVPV

As to `COc1cc(C)c(CC2C(=O)Nc3ccccc32)cc1C(C)C` (stereo not shown) [AAI-9, 3-(5-Isopropyl-4-methoxy-2-methylbenzyl)-1,3-dihydroindol-2-one], the IC50 (usually the concentration needed to halve the response being measured) is > 100 µM in experiment [1] (Table 5); 5.2 µM in experiment [2] (Table 5); 5.25 µM in experiment [3] (Table 5); > 100 µM in experiment [4] (setting [7]); > 100 µM in experiment [5] (setting [7]).
Take `O=C1Nc2cccc(CCO)c2C1Cc1ccccc1` (stereo not shown) [AAI-12, 3-Benzyl-4-(2-hydroxyethyl)-1,3-dihydroindol-2-one]: the IC50 was > 100 µM in experiment [1] (Table 5); > 50 µM in experiment [2] (Table 5); > 50 µM in experiment [3] (Table 5); > 100 µM in experiment [4] (setting [7]); > 100 µM in experiment [5] (setting [7]).
Turning to `O=C1Nc2cccc(CCO)c2/C1=C/c1ccc2[nH]ccc2c1` [IN-007, 4-(2-Hydroxy-ethyl)-3-(1H-indol-5-ylmethylene)-1,3-dihydro-indol-2-one], the IC50 was 22.7 µM in experiment [1] (Table 7); 9.7 µM in experiment [2] (Table 7); 4.2 µM in experiment [3] (Table 7); > 100 µM in experiment [4] (setting [8]); > 100 µM in experiment [5] (setting [8]).
As to `Cc1[nH]c(/C=C2\C(=O)Nc3cccc(CCO)c32)c(C)c1CCCN(C)C` [IN-009, 3-[4-(3-Dimethylamino-propyl)-3,5-dimethyl-1H-pyrrol-2-ylmethylene]-4-(2-hydroxy-ethyl)-1,3-dihydro-indol-2-one], the IC50 in experiment [1] (Table 7) was > 100 µM; in experiment [2] (Table 7), 25.2 µM; in experiment [3] (Table 7), 13.6 µM; in experiment [6], 4.2 µM; in experiment [5] (setting [8]) it was > 100 µM.
`O=C1Cc2c(CCOC(=O)NC3CCCCC3)cccc2N1` [IN-013, Cyclohexyl-carbamic acid 2-(2-oxo-2,3-dihydro-1H-indol-4-yl)-ethyl ester]: the IC50 in experiment [1] (Table 7) is > 100 µM; in experiment [2] (Table 7) it was > 50 µM; in experiment [3] (Table 7), > 50 µM; in experiment [5] (setting [8]) it was > 100 µM.
As to `O=C1Cc2c(CCOC(=O)NS(=O)(=O)c3ccccc3)cccc2N1` [IN-014, Benzene sulfonyl-carbamic acid 2-(2-oxo-2,3-dihydro-1H-indol-4-yl)-ethyl ester], the IC50 in experiment [1] (Table 7) was > 100 µM; in experiment [2] (Table 7), > 50 µM; in experiment [3] (Table 7), > 50 µM; in experiment [5] (setting [8]), > 100 µM.
For the compound `O=C1Cc2c(CCOC(=O)Nc3ccccc3-c3ccccc3)cccc2N1` [IN-015, Biphenyl-2-yl-carbamic acid 2-(2-oxo-2,3-dihydro-1H-indol-4-yl)-ethyl ester], the IC50 in experiment [1] (Table 7) is > 100 µM; in experiment [2] (Table 7) it was 20.5 µM; in experiment [3] (Table 7) it was 21 µM; in experiment [5] (setting [8]), > 100 µM.
Regarding `CCNC(=O)OCCc1cccc2c1CC(=O)N2` [IN-016, Ethyl-carbamic acid 2-(2-oxo-2,3-dihydro-1H-indol-4-yl)-ethyl ester], the IC50 in experiment [1] (Table 7) is > 100 µM; in experiment [2] (Table 7), > 50 µM; in experiment [3] (Table 7), > 50 µM; in experiment [5] (setting [8]), > 100 µM.
Take `CC(C)c1ccc(OCCc2cccc3c2CC(=O)N3)cc1` [IN-020, 4-[2-(4-Isopropyl-phenoxy)-ethyl]-1,3-dihydro-indol-2-one]: the IC50 in experiment [1] (Table 7) is > 100 µM; in experiment [2] (Table 7), > 50 µM; in experiment [3] (Table 7) it was 15.2 µM; in experiment [5] (setting [8]), > 100 µM.
